Two molecules from EP4458358A1, “PYRIDAZINE COMPOUNDS FOR ANTIFIBROTIC THERAPY” (Tietze Chemical Consulting UG, priority 2023, dated 2024) can be followed below.

What all share (assay type): cell-based
The subject of experiment [1] is HRO159N. The experiment is described as follows: ELISA of secreted pro-collagen I alpha 1 (Type I Collagen) from human dermal fibroblasts HRO159N. The note with it: 250 µg. The procedure: (§1) Compounds reconstitution and stock solution: Prior to treatment, DMSO was diluted in PMS until 0,1% DMSO was made. Each compound was solved in 0,1% DMSO (3: 2,5 mg/mL, 1: 2.5 mg/mL, 10: 1 mg/mL, 5: 1mg/mL, 7: 0,6 mg/mL, 16: 1 mg/mL 17: 1 mg/mL, 44: 0,6 mg/mL, 36: 1mg/mL.
(§2) Next the different stock solution with 150 µg and 250 µg of each compound per 1 ml culture solution was made by adding the 0,1% DMSO compound solution in the right amount to culture solution (DMEM with 10% FCS and 1% penicillin-streptomycin).
(§3) Three different cell lines were used for the experiments. GM637 is an immortalized cell line originated from human skin fibroblasts, bought in 2001, UKE1 and […] are cell lines originated from human dermal fibroblasts (dog ear) nurtured from patients, between 60 and 80 years old being completely anonymized at the clinic for dermatology, Rostock.
(§4) The cells lines were thawed and were cultured in Dulbeco's modified Eagel's medium (DMEM, Gibcon, USA) supplemented with 10% fetal bovine serum (FBS, Gibco, Germany) and 1% penicillin-streptomycin (PS, Gibco, USA) at 37 °C in a humidified atmosphere with 5% CO2 until a sufficient number of cells were culture in T75 culture bottles. After reaching a confluence of 80% to 90%, the cells were separated using trypsin and counted. Next 100.000 cells were planted in each well of a 6 well plate in replicates, washed and the DMEM solution with 150 µg and 250 µg/ml substance/DMEM and DMEM with no substance as control was added.
(§5) After 48h and after 72h 100 µl supernatant of each well was taken, labelled and frozen at -20° degree Celsius. Prior to perform ELISA the medium was depending on the cell line diluted 1:50 or 1:100 with PBS, otherwise the concentration of collagen fibers was too high to be measured.
(§6) The media containing the secretion of the different human dermal fibroblasts GM637, UKE1, and HRO159N were collected after 48h and 72h treatment. Secretion of pro-collagen 1 was assessed with human pro-collagen I alpha 1 DuoSet ELISA (R&D systems, USA) To prepare the Elisa plate, Human pro-Collagen I a capture antibody was diluted in ELISA plate-coating buffer at 4µg/mL working concentration. 100 µl of diluted Capture antibody was added to 96-well microplates and incubated over night at room temperature. After three times washing with Wash Buffer, microplates were blocked by adding 300 µl of Reagent Diluent for 1 hour at room temperature. To proceed the ELISA Human pro-collagen I α1 Standards were diluted in Reagent Diluent (range between 31,3 pg/mL - 2000 pg/mL) and 100 µl of standards or conditioned mediums were added to designated wells. Microplates were incubated at room temperature for 2 hours. Human Pro-collagen I α1 Detection Antibody was prepared in Reagent Diluent at […] working concentration and 100 µl of diluted Detection Antibody was applied for 2 hours at room temperature after extensive washing. Then, working solution of Streptavidin-HRP with Reagent Diluent was prepared by diluting 1:40 and added into each well. After 20 minutes at room temperature incubation, microplates were washed and applied with 100 µl of Substrate Solution for 20 minutes followed by Stop Solution after washing. Finally, signals were measured at 450 nm absorbance by PHomo Microplate Reader (Autobio, China) The amount of pro-collagen 1 was quantified by extrapolating the signal into a linear range of a pro-collagen 1 standard curve. Screening compounds were typically tested at concentration of 150 and 250 µg/mL. The dose response data for each compound and the different cell lines were obtained by nonlinear regression analysis using Prism 9 software (GraphPad, La Jolla, USA).
For orientation: In an ELISA, binding on a coated surface is turned into a signal by an enzyme label.

In experiment [2] the test system is GM637. The experiment is described as follows: ELISA of secreted pro-collagen I alpha 1 (Type I Collagen) from human dermal fibroblasts GM637. As to the method: as §1, §2, §3, §4, §5, §6
In experiment [3] the test system is UKE1. The experiment is described as follows: ELISA of secreted pro-collagen I alpha 1 (Type I Collagen) from human dermal fibroblasts UKE1. The procedure: as §1, §2, §3, §4, §5, §6
Experiment [4] has as its system MRCVI. The experiment is described as follows: ELISA of secreted pro-collagen I alpha 1 (Type I Collagen) from human lung fibroblast MRCVI. As to the method:
as §1, §2
As cell line MRCV1 was used, which is an immortalized cell line originated from human lung fibroblast, bought in 2001.
as §4, with “cell line was” for “cells lines were”, “and” for “and were”
as §5
The medium containing the secretion of the human lung fibroblast MRCVI was collected after 48h and 72h treatment. Secretion of pro-collagen 1 was assessed with human pro-collagen I alpha 1 DuoSet ELISA (R&D systems, USA) To prepare the Elisa plate, Human pro-Collagen I a capture antibody was diluted in ELISA plate-coating buffer at 4µg/mL working concentration. 100 µl of diluted Capture antibody was added to 96-well microplates and incubated over night at room temperature. After three times washing with Wash Buffer, microplates were blocked by adding 300 µl of Reagent Diluent for 1 hour at room temperature. To proceed the ELISA Human pro-collagen I α1 Standards were diluted in Reagent Diluent (range between 31,3 pg/mL - 2000 pg/mL) and 100 µl of standards or conditioned mediums were added to designated wells. Microplates were incubated at room temperature for 2 hours. Human Pro-collagen I α1 Detection Antibody was prepared in Reagent Diluent at […] working concentration and 100 µl of diluted Detection Antibody was applied for 2 hours at room temperature after extensive washing. Then, working solution of Streptavidin-HRP with Reagent Diluent was prepared by diluting 1:40 and added into each well. After 20 minutes at room temperature incubation, microplates were washed and applied with 100 µl of Substrate Solution for 20 minutes followed by Stop Solution after washing. Finally, signals were measured at 450 nm absorbance by PHomo Microplate Reader (Autobio, China) The amount of pro-collagen 1 was quantified by extrapolating the signal into a linear range of a pro-collagen 1 standard curve. Screening compounds were typically tested at concentration of 150 and 250 µg/mL. The dose response data for each compound and the different cell lines were obtained by nonlinear regression analysis using Prism 9 software (GraphPad, La Jolla, USA).

Each structure is given as a SMILES string.

On to `COc1nn2c(C)nnc2c2ccccc12` [Compound 3, 6-Methoxy-3-methyl-1,2,4-triazolo[3,4-a]phthalazine], for which the “collagen reduction percentage in comparison to the standard (100 %)” value (“collagen reduction percentage … (100 %)” below) in experiment [1] (48h) worked out at 82%; in experiment [1] (72 h) it was 77%; in experiment [2] (48h, 150 µg) it was 89%; in experiment [2] (48h, 250 µg), 50%; in experiment [2] (72 h, 150 µg) it was 37%; in experiment [2] (72 h, 250 µg), 32%. Also, the “collagen reduction percentage … (100 %)” value in experiment [3] (48h, 150 µg) was 96%; in experiment [3] (48h, 250 µg), 77%; in experiment [3] (72 h, 150 µg), 71%; in experiment [3] (72 h, 250 µg), 52%; in experiment [4] (48h, 150 µg), 35%; in experiment [4] (48h, 250 µg) it was 11%. Further, the “collagen reduction percentage … (100 %)” value is 17% in experiment [4] (72 h, 150 µg) and 5% in experiment [4] (72 h, 250 µg).
As for `c1ccc2c(c1)cnn1nnnc21` [Compound 1, Tetrazolor5,1-alphthalazine], the “collagen reduction percentage … (100 %)” value in experiment [1] (48h) is listed as 57%; in experiment [1] (72 h), 72%; in experiment [2] (48h, 150 µg), 127%; in experiment [2] (48h, 250 µg), 77%; in experiment [2] (72 h, 150 µg) it was 95%; in experiment [2] (72 h, 250 µg) it was 92%. Moreover, the “collagen reduction percentage … (100 %)” value is 70% in experiment [3] (48h, 150 µg); 85% in experiment [3] (48h, 250 µg); 74% in experiment [3] (72 h, 150 µg); 68% in experiment [3] (72 h, 250 µg); 87% in experiment [4] (48h, 150 µg); 78% in experiment [4] (48h, 250 µg). Also, the “collagen reduction percentage … (100 %)” value in experiment [4] (72 h, 150 µg) came to 74%; in experiment [4] (72 h, 250 µg) it was 61%.
